Experimental data as given in patent publication US20220177932A1, “PROCESS AND COMPOSITION FOR CONTROLLING ETHANOL PRODUCTION” (priority 2020, published 2022).

Legend:
[1] = test system: Clostridium authoethanogenum; test: Syngas fermentation in stirred tank bioreactor, effect of vitamin feed rates on specific ethanol productivity; type: cell-based; settings: Experiment 5
From the text: A synthesis gas containing CO, CO2 and H2 was continuously introduced into a stirred tank bioreactor containing Clostridium ljungdahlii (Experiments 1-4) or Clostridium authoethanogenum (Experiment 5), along with a liquid medium containing trace metals and salts as described herein. Vitamins were provided using dedicated feed lines. A New Brunswick Bioflow reactor containing the fermentation medium was started with actively growing Clostridium ljungdahlii (Experiments 1-5) or with Clostridium authoethanogenum (Experiment 6). The rate of agitation of the reactor was set to 800 rpm at the start of the experiment and this agitation rate was maintained throughout the experiment. Feed gas flow to the reactor was increased based on the H2 and CO uptake of the culture. Temperature in the bioreactor was maintained at about 38° C. throughout the experiment. Samples of gas feed into the bioreactor and off-gas from the bioreactor and fermentation broth in the bioreactor were taken at intervals, for example feed gas, off-gas and fermentation broth were sampled about daily, once two hours and once four hours respectively. Above samples were analyzed for consumption or production of various gas components, broth acetic acid concentration, broth ethanol concentration and the optical density (cell density) of the culture. The unaroused volume of the reactor was maintained between 3000 to 3250 ml throughout the experiment. Further, the gas flow to the reactor was maintained at required gas flow rates by using a mass flow controller. The feed […] composition was 23% H2, 35% CO, 29% CO2 and 13% N2. In the following reactor runs, vitamins biotin, thiamine and pantothenate were feed to the reactor using a dedicated stream. Steady state conditions were maintained for a period of time greater than 5 times the cell retention time. Cell mass was essentially replaced 5 times before data collection phase started. After data set was collected, vitamin feed rate was adjusted, adjustment phase was repeated, and next data set was collected. Adjustment phase refers to an amount of time necessary for the culture to equilibrate to a change. In this experiment culture was allowed at least a 3-day adjustment phase. A cell recycle system (CRS) was attached to the reactor before the start of the experiment. During the experiment, medium feed rate was 3.0 to 6.0 ml/min, and through the CRS, 0-5 ml/min permeate was drawn out from the reactor. The following tables describe the vitamin feed rates and specific ethanol productivity (SEP). Experiment 5: Fermentation with Clostridium authoethanogenum with Biotin (B7) and Thiamine (B1) feeds held at lower base levels with increasing Pantothenate (B5) Feeds.

Clostridium ljungdahlii = test: as above; type: cell-based; settings: Experiment 4; vitamin B5 feed held constant below about 30 ug/g of cells produced, vitamin B1 and B7 feeds increased
From the text: A synthesis gas containing CO, CO2 and H2 was continuously introduced into a stirred tank bioreactor containing Clostridium ljungdahlii (Experiments 1-4) or Clostridium authoethanogenum (Experiment 5), along with a liquid medium containing trace metals and salts as described herein. Vitamins were provided using dedicated feed lines. A New Brunswick Bioflow reactor containing the fermentation medium was started with actively growing Clostridium ljungdahlii (Experiments 1-5) or with Clostridium authoethanogenum (Experiment 6). The rate of agitation of the reactor was set to 800 rpm at the start of the experiment and this agitation rate was maintained throughout the experiment. Feed gas flow to the reactor was increased based on the H2 and CO uptake of the culture. Temperature in the bioreactor was maintained at about 38° C. throughout the experiment. Samples of gas feed into the bioreactor and off-gas from the bioreactor and fermentation broth in the bioreactor were taken at intervals, for example feed gas, off-gas and fermentation broth were sampled about daily, once two hours and once four hours respectively. Above samples were analyzed for consumption or production of various gas components, broth acetic acid concentration, broth ethanol concentration and the optical density (cell density) of the culture. […]

| SMILES | SEP (specific ethanol productivity) ([1]; feeds pantothenate 48.47, biotin 29.54, thiamine 23.10 μg/g cells produced) | SEP (specific ethanol productivity) ([1]; feeds pantothenate 58.08, biotin 26.65, thiamine 20.84 μg/g cells produced) | SEP (specific ethanol productivity) ([1]; feeds pantothenate 62.90, biotin 23.04, thiamine 18.01 μg/g cells produced) | SEP (specific ethanol productivity) ([1]; feeds pantothenate 68.78, biotin 25.19, thiamine 19.70 μg/g cells produced) | SEP (specific ethanol productivity) ([1]; feeds pantothenate 70.67, biotin 21.62, thiamine 16.91 μg/g cells produced) | SEP (specific ethanol productivity) ([1]; feeds pantothenate 81.90, biotin 18.79, thiamine 14.69 μg/g cells produced) | specific ethanol productivity increase ([1]; vitamin B5 feed from about 48 to about 82 ug/g of cells produced, vitamin B1 and B7 feeds under 30, further under 20 ug/g of cells produced) | effect of increasing feed rate on specific ethanol productivity (Clostridium ljungdahlii) |
| --- | --- | --- | --- | --- | --- | --- | --- | --- |
| CC(C)(CO)[C@@H](O)C(=O)NCCC(=O)O [Pantothenate (B5), pantothenate] | 8.08 g//day/g cells | 8.24 g//day/g cells | 8.51 g//day/g cells | 9.39 g//day/g cells | 9.70 g//day/g cells | 9.98 g//day/g cells | about 24% | – |
| Cc1ncc(C[n+]2csc(CCO)c2C)c(N)n1 [vitamin B1, thiamine] | – | – | – | – | – | – | – | did not increase specific ethanol productivity |
| O=C(O)CCCC[C@@H]1SC[C@@H]2NC(=O)N[C@@H]21 [vitamin B7, biotin] | – | – | – | – | – | – | – | did not increase specific ethanol productivity |
